Laboratory results reported in patent US20250129101A1, “Compound, Pharmaceutical Composition Comprising the Same and Method for Treating Cancer Using the Same” (NATIONAL TSING HUA UNIVERSITY, priority 2023, published 2025).

Key:
[1] = system: MDA-MB-231 cells; assay: Cell validation: cytotoxicity in MDA-MB-231 cells (CellTiter-Glo); format: cell-based; settings: cytotoxicity in MDA-MB-231 cells; for IC50: Homo sapiens
Experimental: (§1) The in vitro validation was performed by measuring KIF2C kinesin activity using malachite green-based phosphate colorimetric assay (BioVision). […] The microtubules from porcine brain tubulin (Cytoskeleton) or purified from HEK293 cells in Free-style medium (293Fs) were dissolved in the BRB80 buffer (80 mM PIPES pH 6.8, 1 mM EGTA, 1 mM MgCl2, 1 mM GTP, 1 mM DTT, and 10% DMSO) at 37° C. for 2 hr. Phosphates released from kinesin-mediated ATP hydrolysis was measured by adding 30 μL of the phosphate colorimetric reagent (BioVision), incubated for 10 min, and then measured with absorbance at 650 nm. […] The cell validation was performed by measuring cytotoxicity in MDA-MB-231 cells. The cells were cultured in a 96-well plate at a confluence of 2000 cells/well with indicates compounds for specific days. When the time was up, the culture medium in the plate was aspirated and replaced with a prepared CellTiter-Glo reagent (Promega)/DMEM mixture (1:1 mix of CellTiter-Glo reagent and serum-supplemented DMEM). After incubation for 10 min, the luminescence was measured with an ELISA plate reader to determine the cell viability.
The cancer cells were cultured in a 96-well plate at a confluence of 1000-2000 cells/well with indicated drugs for specific days. When the time was up, the culture medium in the plate was aspirated and replaced with a prepared CellTiter-Glo reagent/DMEM mixture (1:1 mix of CellTiter-Glo reagent and serum-supplemented DMEM). After incubation for 10 min, the luminescence (proportional to the number of living cells) was measured with an ELISA plate reader to determine the cell viability.

[2] = molecular target: T1, KIF2C (Homo sapiens, UniProt Q99661); assay: In vitro validation: KIF2C kinesin activity, malachite green-based phosphate colorimetric assay; format: biochemical; settings: for EC50: concentration that inhibits 50% of KIF2C activity
T1 construct: KIF2C (216-598 a.a.); 6xHis (C); made in house; host or cells: E. coli BL21 (DE3), pET-28a
T1 sequence (Q99661 216-598): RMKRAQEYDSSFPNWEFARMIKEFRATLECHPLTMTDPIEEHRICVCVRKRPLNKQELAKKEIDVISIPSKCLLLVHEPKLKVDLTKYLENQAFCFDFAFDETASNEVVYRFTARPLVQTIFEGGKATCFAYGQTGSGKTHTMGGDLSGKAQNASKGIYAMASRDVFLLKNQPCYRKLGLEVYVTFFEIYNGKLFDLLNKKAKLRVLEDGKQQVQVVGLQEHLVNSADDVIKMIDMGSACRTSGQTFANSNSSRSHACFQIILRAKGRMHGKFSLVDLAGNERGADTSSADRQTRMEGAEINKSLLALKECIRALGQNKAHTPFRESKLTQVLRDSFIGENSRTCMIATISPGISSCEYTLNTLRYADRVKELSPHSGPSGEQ
Experimental: as §1
In vitro kinesin activity was measured using malachite green-based phosphate colorimetric assay (BioVision). […] The microtubules from porcine brain tubulin (Cytoskeleton) or purified from HEK293 cells in Free-style medium (293Fs) were dissolved in the BRB80 buffer (80 mM PIPES pH 6.8, 1 mM EGTA, 1 mM MgCl2, 1 mM GTP, 1 mM DTT, and 10% DMSO) at 37° C. for 2 hr. Phosphates released from kinesin-mediated ATP hydrolysis was measured by adding 30 μL of the phosphate colorimetric reagent (BioVision), incubated for 10 min, and then measured with absorbance at 650 nm.
Constructs of sN+M regions of KIF2C (216-598 a.a.), KIF2A (181-562 a.a.) and KIF2B (171-553 a.a.) with C-terminal 6×His tag were subcloned into pET-28a vector and expressed in BL21 (DE3) E. coli cells (Novartis) cultured in Luria-Bertani medium supplemented with 50 ug/mL kanamycin at 37° C. After induction with 0.8 mM IPTG for 18 hr at 20° C., the cells were pelleted by centrifugation at 6000 rpm for 30 min at 10° C. The collected pellets were resuspended in 30 mL of buffer A (20 mM Tris-HCl pH 7.5, 500 mM NaCl, 10 mM imidazole, 1% CHAPS, and 1 mM PMSF) and next subjected to a high-pressure homogenizer (EmulsiFlex-C3) for cell lysis. After removing the cell debris by centrifugation at 13000 rpm for 30 min at 10° C., the recombinant Kinesin-13 in the supernatant was purified using nickel affinity chromatography. Firstly, the supernatant was applied to the Ni-NTA column (GE Healthcare) pre-equilibrated with buffer A. Secondly, the column was washed with 10× column volumes of buffer A to remove the unwanted proteins. The washed column was then eluted with 10× column volumes of buffer containing increasing concentrations of imidazole (40, 100, 300, 1000 mM), and the majority of the recombinant Kinesin-13 protein was eventually obtained in a fraction of 300 mM imidazole. The fractions containing the recombinant Kinesin-13 were subsequently concentrated in the buffer B (20 mM Tris-HCl pH 7.5, 10 mM imidazole, 50 mM NaCl, 2 mM DTT) using an Amicon® Ultra filter (Millipore) and subjected to cation exchange column (Capto S, GE Healthcare) for further purification. The recombinant Kinesin-13 was then eluted in elution buffer (20 mM Tris-HCl pH 7.5 and 2 mM DTT) containing 400 mM of NaCl and stored at −80° C. for long-term storage.

SMILES | IC50 [1] | EC50 [2] | Cell validation (IC50) [1] | KIF2C activity in reaction containing nocodazole (in words) ([2]; 1 μM nocodazole)
COC(=O)C1=C(C)N=c2s/c(=C\c3ccc(OCC(=O)O)cc3)c(=O)n2C1c1ccc(Cl)cc1 (stereo not drawn) [14S0 (78), (Z)-2-(4-((5-(4-chlorophenyl)-6-(methoxycarbonyl)-7-methyl-3-oxo-5H-thiazolo[3,2-a]pyrimidin-2(3H)-ylidene)methyl)phenoxy)acetic acid] | > 50 µM | 50 to 100 µM | – | –
CCOC(=O)C1=C(C)N=c2s/c(=C\c3ccc(OCC(=O)N4CCC(N5CCN(C)CC5)CC4)cc3)c(=O)n2C1c1ccc(N(C)C)cc1 (stereo not drawn) [Compound 150] | 20 to 50 µM | 50 to 100 µM | – | –
CC1=C(C(=O)OC(C)(C)C)C(c2ccc(N(C)C)cc2)n2c(s/c(=C\c3ccc(OCC(=O)N4CCC(N5CCN(C)CC5)CC4)cc3)c2=O)=N1 (stereo not drawn) [Compound 152] | 20 to 50 µM | 50 to 100 µM | – | –
COc1ccc(/C=c2\sc3n(c2=O)C(c2ccc(Cl)cc2)C(C(=O)OC(C)C)=C(C)N=3)cc1 (stereo not drawn) [3S0 (23), isopropyl (Z)-5-(4-chlorophenyl)-2-(4-methoxybenzylidene)-7-methyl-3-oxo-2,3-dihydro-5H-thiazolo[3,2-a]pyrimidine-6-carboxylate] | > 50 µM | > 100 µM | – | –
CCOC(=O)COc1ccc(/C=c2\sc3n(c2=O)C(c2ccc(Cl)cc2)C(C(=O)OC(C)C)=C(C)N=3)cc1 (stereo not drawn) [4S0 (26), 1-methylethyl 5-(4-chlorophenyl)-2-[[4-(2-ethoxy-2-oxoethoxy)phenyl]methylene]-2,3-dihydro-7-methyl-3-oxo-5H-thiazolo[3,2-a]pyrimidine-6-carboxylate] | > 50 µM | > 100 µM | – | –
CCOC(=O)C1=C(C)N=c2s/c(=C\c3ccc(OCC(=O)N4CCC(N5CCN(C)CC5)CC4)cc3)c(=O)n2C1c1ccc(Cl)cc1 (stereo not drawn) [50S0 (99)] | – | < 50 µM | + + + + | –
CC1=C(C(=O)OC(C)C)C(c2ccc(Cl)cc2)n2c(s/c(=C\c3ccc(OCC(=O)N4CCC(N(C)C)CC4)cc3)c2=O)=N1 (stereo not drawn) [Compound 139] | 20 to 50 µM | 50 to 100 µM | – | –
CC1=C(C(=O)OC(C)C)C(c2ccc(Cl)cc2)n2c(s/c(=C\c3ccc(OCC(=O)NC4CCN(C)CC4)cc3)c2=O)=N1 (stereo not drawn) [Compound 136] | > 50 µM | > 100 µM | – | –
CC1=C(C(=O)OC(C)C)C(c2ccc(Cl)cc2)n2c(s/c(=C\c3ccc(OCc4cnn[nH]4)cc3)c2=O)=N1 (stereo not drawn) [37S0 (120), isopropyl (Z)-2-(4-((1H-1,2,3-triazol-5-yl)methoxy)benzylidene)-5-(4-chlorophenyl)-7-methyl-3-oxo-2,3-dihydro-5H-thiazolo[3,2-a]pyrimidine-6-carboxylate] | > 50 µM | > 100 µM | – | –
CC1=C(C(=O)OC(C)C)C(c2ccc(-n3ccnc3)cc2)n2c(s/c(=C\c3ccc(OCC(=O)O)cc3)c2=O)=N1 (stereo not drawn) [52S0 (45), (Z)-2-(4-((5-(4-(1H-imidazol-1-yl)phenyl)-6-(isopropoxycarbonyl)-7-methyl-3-oxo-5H-thiazolo[3,2-a]pyrimidin-2(3H)-ylidene)methyl)phenoxy)acetic acid] | > 50 µM | > 100 µM | – | –
CCOC(=O)C1=C(C)N=c2s/c(=C\c3ccc(OCC(=O)O)cc3)c(=O)n2[C@H]1c1ccc(Cl)cc1 [55S0 (131)] | > 50 µM | > 100 µM | – | –
CC1=C(C(=O)OC(C)C)C(c2ccc(Br)cc2)n2c(s/c(=C\c3ccc(OCC(=O)O)cc3)c2=O)=N1 (stereo not drawn) [40S0 (40), (4-(((2Z)-5-(4-bromophenyl)-7-methyl-3-oxo-6-((propan-2-yloxy)carbonyl)-5H-[1,3]thiazolo[3,2-a]pyrimidin-2(3H)-ylidene)methyl)phenoxy)acetic acid] | > 50 µM | < 20 µM | – | –
CC1=C(C(=O)OC(C)C)C(c2ccc(Cl)cc2)n2c(s/c(=C\c3ccc(OCC(=O)N4CCN(C(C)C)CC4)cc3)c2=O)=N1 (stereo not drawn) [11S0 (16), isopropyl (Z)-5-(4-chlorophenyl)-2-(4-(2-(4-isopropylpiperazin-1-yl)-2-oxoethoxy)benzylidene)-7-methyl-3-oxo-2,3-dihydro-5H-thiazolo[3,2-a]pyrimidine-6-carboxylate] | – | > 100 µM | + + | –
CCOC(=O)C1=C(C)N=c2s/c(=C\c3ccc(OCC(=O)N4CCN(C)CC4)cc3)c(=O)n2C1c1ccc(Cl)cc1 (stereo not drawn) [49S0 (94)] | – | 50 to 100 µM | + + | –
CCOC(=O)C1=C(C)N=c2s/c(=C\c3ccc(OCC(=O)N4CCN(CC)CC4)cc3)c(=O)n2C1c1ccc(N(C)C)cc1 (stereo not drawn) [Compound 146] | 20 to 50 µM | < 50 µM | – | –
CCN1CCN(C(=O)COc2ccc(/C=c3\sc4n(c3=O)C(c3ccc(C)cc3)C(C(=O)OC(C)C)=C(C)N=4)cc2)CC1 (stereo not drawn) [18S0 (51), isopropyl (Z)-2-(4-(2-(4-ethylpiperazin-1-yl)-2-oxoethoxy)benzylidene)-7-methyl-3-oxo-5-(p-tolyl)-2,3-dihydro-5H-thiazolo[3,2-a]pyrimidine-6-carboxylate] | – | 50 to 100 µM | + + | –
CC1=C(C(=O)OC(C)C)C(c2ccc(F)cc2)n2c(s/c(=C\c3ccc(OCC(=O)N4CCN(C)CC4)cc3)c2=O)=N1 (stereo not drawn) [32S0 (36), isopropyl (Z)-5-(4-fluorophenyl)-7-methyl-2-(4-(2-(4-methylpiperazin-1-yl)-2-oxoethoxy)benzylidene)-3-oxo-2,3-dihydro-5H-thiazolo[3,2-a]pyrimidine-6-carboxylate] | – | > 100 µM | + + | –
CC1=C(C(=O)OC(C)C)C(c2ccc(C(F)(F)F)cc2)n2c(s/c(=C\c3ccc(OCC(=O)N4CCN(C)CC4)cc3)c2=O)=N1 (stereo not drawn) [Compound 141] | 20 to 50 µM | < 50 µM | – | –
CC1=C(C(=O)OC(C)C)C(c2ccc(N(C)C)cc2)n2c(s/c(=C\c3ccc(OCC(=O)O)cc3)c2=O)=N1 (stereo not drawn) [51S0 (55), (Z)-2-(4-((5-(4-(dimethylamino)phenyl)-6-(isopropoxycarbonyl)-7-methyl-3-oxo-5H-thiazolo[3,2-a]pyrimidin-2(3H)-ylidene)methyl)phenoxy)acetic acid] | > 50 µM | 50 to 100 µM | – | –
CC1=C(C(=O)OCc2ccccc2)C(c2ccc(Cl)cc2)n2c(s/c(=C\c3ccc(OCC(=O)N4CCN(C)CC4)cc3)c2=O)=N1 (stereo not drawn) [29S0 (97), benzyl (Z)-5-(4-chlorophenyl)-7-methyl-2-(4-(2-(4-methylpiperazin-1-yl)-2-oxoethoxy)benzylidene)-3-oxo-2,3-dihydro-5H-thiazolo[3,2-a]pyrimidine-6-carboxylate] | – | 50 to 100 µM | + + + | –
CC1=C(C(=O)OC(C)C)C(c2ccc(Cl)cc2)n2c(s/c(=C\c3ccc(OCC(=O)N4CCC(N5CCN(C)CC5)CC4)cc3)c2=O)=N1.O=C(O)/C=C\C(=O)O (stereo not drawn) [24S9 (135), isopropyl (Z)-5-(4-chlorophenyl)-7-methyl-2-(4-(2-(4-(4-methylpiperazin-1-yl)piperidin-1-yl)-2-oxoethoxy)benzylidene)-3-oxo-2,3-dihydro-5H-thiazolo[3,2-a]pyrimidine-6-carboxylate maleate] | – | – | + + + + | –
COC(=O)Nc1nc2ccc(C(=O)c3cccs3)cc2[nH]1 [nocodazole, reference compound] | – | – | – | largely reduced
